This assay has as its target T1, SARM1 (Homo sapiens, UniProt Q6SZW1).
T1 construct: AviTag […]; made in house; host or cells: NRK1-HEK293T cells, transiently transfected; the clarified sonicated lysate was used without purification
T1 sequence (Q6SZW1 with tags, fused parts or gaps): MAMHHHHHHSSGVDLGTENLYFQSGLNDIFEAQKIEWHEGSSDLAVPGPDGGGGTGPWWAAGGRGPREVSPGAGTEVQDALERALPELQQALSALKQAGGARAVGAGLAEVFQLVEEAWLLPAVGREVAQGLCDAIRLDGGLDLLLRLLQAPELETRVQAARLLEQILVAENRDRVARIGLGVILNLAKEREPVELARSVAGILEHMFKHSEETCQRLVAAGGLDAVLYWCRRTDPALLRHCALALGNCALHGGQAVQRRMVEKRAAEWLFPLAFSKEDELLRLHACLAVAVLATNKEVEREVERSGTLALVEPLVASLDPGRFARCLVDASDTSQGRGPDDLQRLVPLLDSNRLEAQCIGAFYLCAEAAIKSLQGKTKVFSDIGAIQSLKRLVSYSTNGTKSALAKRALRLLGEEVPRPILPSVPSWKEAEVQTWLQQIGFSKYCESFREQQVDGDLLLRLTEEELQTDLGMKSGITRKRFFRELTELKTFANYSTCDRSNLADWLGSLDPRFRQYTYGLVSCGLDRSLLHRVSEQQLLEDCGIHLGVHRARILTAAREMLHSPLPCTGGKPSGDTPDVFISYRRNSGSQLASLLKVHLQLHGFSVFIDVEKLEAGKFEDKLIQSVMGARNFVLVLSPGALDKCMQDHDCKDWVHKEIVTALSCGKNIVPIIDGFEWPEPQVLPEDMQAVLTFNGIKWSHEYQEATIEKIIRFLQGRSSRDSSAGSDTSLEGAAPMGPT
As to the kind of experiment: ARM-SAM-TIR SARM1 IC50 assay (NADase activity, NAD+ cleavage). The assay is classed as biochemical. An excerpt: This Example describes an assay of ARM-SAM-TTR NADase activity and use of this assay to measure the efficacy of compounds of Formula I or Formula II to block SARM1 mediated NAD+ cleavage. This assay is optimized in such a way as to characterize the efficacy of the compounds in Formula I or Formula II to inhibit SARM1 activity and to calculate an IC50 value for each compound. This assay makes use of full length SARI, which encompasses the ARM, SAM and TTR domains.
Preparation of ARM-SAM-TIR Lysate (STL)
NRK1-HEK293T cells were seeded onto 150 cm^2 plates at 20×10^6 cells per plate. The next day, the cells were transfected with 15 μg ARM-SAM-TIR expression plasmid, SEQ ID NO: 1.
The cultures were supplemented with 1 mM NR at time of transfection to minimize toxicity from ARM-SAM-TIR overexpression. Forty-eight hours after transfection, cells were harvested, pelleted by centrifugation at 1,000 rpm (Sorvall ST 16R centrifuge, Thermo Fisher), and washed once with cold PBS (0.01 M phosphate buffered saline NaCl 0.138 M; KCl 0.0027 M; pH 7.4). The cells were resuspended in PBS with protease inhibitors (cOmplete™ protease inhibitor cocktail, Roche product #11873580001) and cell lysates were prepared by sonication (Branson Sonifer 450, output=3, 20 episodes of stroke). The lysates were centrifuged (12,000×g for 10 min at 4° C.) to remove cell debris and the supernatants (containing ARM-SAM-TIR protein) were stored at −80° C. for later use in the in vitro ARM-SAM-TIR NADase assay (see below). Protein concentration was determined by the Bicinchoninic (BCA) method and used to normalize lysate concentrations.
ARM-SAM-TIR IC50 Assay of Formula I or Formula II Compounds.
The enzymatic assay was performed in a 384-well polypropylene plate in Dulbecco's PBS buffer in a final assay volume of 20 μL. ARM-SAM-TIR lysate with a final concentration of 5 μg/mL was pre-incubated with the respective compound at 1% DMSO final assay concentration over 2 h at room temperature. The reaction was initiated by addition of 5 μM final assay concentration of NAD+ as substrate. After a 2 hr room temperature incubation, the reaction was terminated with 40 μL of stop solution of 7.5% trichloroactetic acid in acetonitrile. The NAD+ and ADPR concentrations were analyzed by a RapidFire High Throughput Mass Spectrometry System (Agilent Technologies, Santa Clara, CA) using an API4000 triple quadrupole mass spectrometer (AB Sciex Framingham, MA).

The mark [1] stands for this setting: ARM-SAM-TIR lysate 5 μg/mL from NRK1-HEK293T cells, 2 h pre-incubation with compound, 5 μM NAD+, 2 hr room temperature, NAD+ and ADPR by RapidFire mass spectrometry, read-out: SARM1 IC50.

These results are taken from patent US12441719B2, “Inhibitors of SARM1” (Disarm Therapeutics, Inc., priority 2019, dated 2025).

Each structure is given as a SMILES string. Like-named read-outs stand apart in the source and are kept apart here. Where only a bound is given, the exact number is not on record here.

The compound `N#Cc1cc(N2C[C@H]3C[C@@H]2CN3)nc2ccc(Cl)cc12` [Example 84] gave an IC50 of 5 to 15 µM. On to `N#Cc1cc(N2CC[C@H](C(=O)N3CCCC3)C2)nc2ccc(Br)cc12` [Example 142], for which, under setting [1], the IC50 is less than 5 µM. On the same count and under the same terms, the same measure for `CC(=O)NC1(C)CCN(c2cc(C#N)c3cc(Br)ccc3n2)CC1` [Example 114]: less than 5 µM.

In the case of `CC(C)(C)OC(=O)NC1CCN(c2cc(C#N)c3cc(C4CCOC4)ccc3n2)CC1` (stereo not shown) [Example 94], under setting [1], the IC50 was less than 5 µM. The same measure, in the same setting: under `CO[C@H]1CCCN(c2cc(C#N)c3cc(Cl)ccc3n2)C1` [Example 61] stands less than 5 µM. Regarding `N#Cc1cc(N2CCC[C@H](NC(=O)c3cn[nH]c3)C2)nc2ccc(Br)cc12` [Example 127], under setting [1], the IC50 is less than 5 µM. In the case of `C[C@H]1CCCCN1c1cc(C#N)c2cc(Cl)ccc2n1` [Example 83], under setting [1], the IC50 was less than 5 µM.

Consider `C[C@@H]1CCC[C@H](C)N1c1cc(C#N)c2cc(C#N)ccc2n1` [Example 140], for which the IC50 under setting [1] was less than 5 µM. The same measure, in the same setting: under `N#Cc1cc(N)nc2ccc(Cl)cc12` [Example 70] stands 15 to 30 µM. Still for that read-out and setting: under `N#Cc1cc(N2CCC[C@H](NCC3CC3)C2)nc2ccc(Br)cc12` [Example 108] stands less than 5 µM. Still for that read-out and setting: under `C#CCCC1(CCNc2cc(C#N)c3cc(Cl)ccc3n2)N=N1` [Example 111] stands less than 5 µM; under `CC(O)CNc1cc(C#N)c2cc(Cl)ccc2n1` (stereo not shown) [Example 38], 15 to 30 µM; under `CNC(=O)C1CCN(c2cc(C#N)c3cc(Cl)ccc3n2)C1` (stereo not shown) [Example 68], 5 to 15 µM. For the compound `CN(Cc1ccccc1)C(=O)C1CCN(c2cc(C#N)c3cc(Br)ccc3n2)CC1` [Example 125], under setting [1], the IC50 was less than 5 µM.

With `CN(C)C(=O)[C@H]1CCCN(c2cc(C#N)c3cc(Cl)ccc3n2)C1` [Example 80], the IC50 under setting [1] is less than 5 µM.

As for `Cc1ccc2nc(N(C)C)cc(C#N)c2c1` [Example 19], the IC50 under setting [1] was less than 5 µM. The same measure, in the same setting: under `N#Cc1cc(N2CCC[C@H](NC(=O)c3ccncn3)C2)nc2ccc(Br)cc12` [Example 126] stands less than 5 µM; under `N#Cc1cc(N2CCC(NCc3ccccc3)CC2)nc2ccc(Br)cc12` [Example 113], less than 5 µM; under `N#Cc1cc(N2CC(CO)C2)nc2ccc(Cl)cc12` [Example 34], 5 to 15 µM.

Turning to `N#Cc1cc(N2CCC(C(N)=O)CC2)nc2ccc(Cl)cc12` [Example 56], under setting [1], the IC50 lay within 5 to 15 µM. Still for that read-out and setting: the same measure for `N#Cc1cc(NCc2ccccn2)nc2ccc(Cl)cc12` [Example 42]: less than 5 µM; for `CC(=O)N[C@]1(C)CCCN(c2cc(C#N)c3cc(Br)ccc3n2)C1` [Example 121]: less than 5 µM. For the compound `N#Cc1cc(N2CCC(NS(N)(=O)=O)CC2)nc2ccc(Br)cc12` [Example 132], under setting [1], the IC50 is less than 5 µM.

Turning to `COC1CCN(c2cc(C#N)c3cc(Cl)ccc3n2)CC1` [Example 54], under setting [1], the IC50 is less than 5 µM.

In the case of `Cc1n[nH]cc1C(=O)N[C@H]1CCCN(c2cc(C#N)c3cc(Br)ccc3n2)C1` [Example 129], the IC50 under setting [1] was less than 5 µM.

As to `CN1CCN(c2cc(C#N)c3cc(Cl)ccc3n2)CC1` [Example 52], the IC50 under setting [1] was more than 30 µM. Still for that read-out and setting: under `CNC(=O)C1CCN(c2cc(C#N)c3cc(Cl)ccc3n2)CC1` [Example 57] stands less than 5 µM. On the same count and under the same terms, the same measure for `C[C@@H]1CCC[C@H](C)N1c1cc(C#N)c2cc(CO)ccc2n1` [Example 149]: less than 5 µM.

For `N#Cc1cc(N2CCCCC2C2CC2)nc2ccc(Cl)cc12` (stereo not shown) [Example 98], the IC50 under setting [1] was less than 5 µM.

Regarding `N#Cc1cc(N2CC[C@H](N)C(F)C2)nc2ccc(Br)cc12` (stereo partly shown) [Example 99], under setting [1], the IC50 was less than 5 µM. As for `N#Cc1cc(N2CCC[C@H](C(=O)NCC3CC3)C2)nc2ccc(Br)cc12` [Example 103], the IC50 under setting [1] is less than 5 µM. Turning to `C[C@@H]1CCC[C@H](C)N1c1cc(C#N)c2cc(Cl)ccc2n1` [Example 81], under setting [1], the IC50 was less than 5 µM.

As for `CC(C)(C)OC(=O)NC1CCN(c2cc(C#N)c3cc(C4=CCOC4)ccc3n2)CC1` [Example 93], the IC50 under setting [1] is less than 5 µM. Same read-out and setting: the same measure for `N#Cc1cc(N2CC[C@H](N)C2)nc2ccc(Cl)cc12` [Example 66]: less than 5 µM; for `OCCNC1CCN(c2ccc3cc(Cl)ccc3n2)CC1` [Example 2]: more than 30 µM; for `CN(C)C(=O)C1CCN(c2cc(C#N)c3cc(Cl)ccc3n2)C1` (stereo not shown) [Example 69]: less than 5 µM.

For `N#Cc1cc(N2CCC[C@H](O)C2)nc2ccc(Cl)cc12` [Example 77], the IC50 under setting [1] is less than 5 µM. In the case of `CN(C)c1cc(C#N)c2ccc(Cl)cc2n1` [Example 27], the half-maximal inhibitory concentration (IC50) under setting [1] was less than 5 µM. The same measure, in the same setting: under `CC1CC(CNc2cc(C#N)c3cc(Cl)ccc3n2)CCO1` (stereo not shown) [Example 36] stands less than 5 µM. Same read-out and setting: the same measure for `N#Cc1cc(N2CCCC2)nc2cc(F)c(Cl)cc12` [Example 71]: less than 5 µM.

On to `N#Cc1cc(N2CC[C@@H](O)C2)nc2ccc(Cl)cc12` [Example 11], for which, under setting [1], the IC50 is less than 5 µM.

As for `N#Cc1cc(N2CCCCC2)nc2cc(F)c(Cl)cc12` [Example 89], the IC50 under setting [1] is less than 5 µM. On to `CS(=O)(=O)N[C@H]1CCCN(c2cc(C#N)c3cc(Br)ccc3n2)C1` [Example 110], for which the IC50 under setting [1] was less than 5 µM.

Take `Cc1cc(N2CCC(NCCO)CC2)nc2ccc(Cl)cc12` [Example 9]: the IC50 under setting [1] was more than 30 µM.

In the case of `C[C@@H]1CCCN(c2cc(C#N)c3cc(Cl)ccc3n2)C1` [Example 62], the IC50 under setting [1] is less than 5 µM. For `N#Cc1cc(N2CCC(NCCO)CC2)nc2ccccc12` [Example 8], the IC50 under setting [1] is more than 30 µM. The same measure, in the same setting: under `Cc1ccc2nc(N3CCCCC3)cc(C#N)c2c1` [Example 18] stands 5 to 15 µM; under `N#Cc1cc(NCc2cccc(C(N)=O)c2)nc2ccc(Cl)cc12` [Example 45], less than 5 µM; under `C[C@H]1CCCN(c2cc(C#N)c3cc(Cl)ccc3n2)C1` [Example 63], less than 5 µM. The same measure, in the same setting: the same measure for `CN(C)c1cc(C#N)c2cc(Br)ccc2n1` [Example 22]: less than 5 µM; for `N#Cc1cc(N2CCC[C@H](N3CCCC3=O)C2)nc2ccc(Br)cc12` [Example 109]: less than 5 µM.

As to `N#Cc1cc(NC2CCN(Cc3cccnc3)CC2)nc2ccc(Cl)cc12` [Example 44], under setting [1], the IC50 is less than 5 µM. Same read-out and setting: the same measure for `N#Cc1cc(NCC(O)c2ccco2)nc2ccc(Cl)cc12` (stereo not shown) [Example 30]: 5 to 15 µM.

In the case of `NC(=O)c1cc(N2CCC(NCCO)CC2)nc2ccc(Cl)cc12` [Example 6], the IC50 under setting [1] is more than 30 µM.

Take `Cc1ccc2nc(N3CCC(N)CC3)cc(C#N)c2c1` [Example 17]: under setting [1], the IC50 was in the range of 5 to 15 µM. Still for that read-out and setting: under `COCCN(C)C(=O)[C@H]1CCCN(c2cc(C#N)c3cc(Br)ccc3n2)C1` [Example 112] stands less than 5 µM; under `N#Cc1cc(N2CCC(N)CC2)nc2ccc(F)cc12` [Example 23], more than 30 µM.

Regarding `N#Cc1cc(N2CCC[C@@H]2C(=O)N2CCCC2)nc2ccc(Br)cc12` [Example 146], under setting [1], the IC50 is less than 5 µM. On the same count and under the same terms, under `N#Cc1cc(N2CCOCC2C2CC2)nc2ccc(Cl)cc12` (stereo not shown) [Example 131] stands less than 5 µM. With `N#Cc1cc(NC2CC2)nc2ccc(Cl)cc12` [Example 51], the IC50 under setting [1] was more than 30 µM. The same measure, in the same setting: under `C[C@]1(NS(C)(=O)=O)CCCN(c2cc(C#N)c3cc(Br)ccc3n2)C1` [Example 120] stands less than 5 µM.
